Assay [1] relates to dry eye model induced by 0.2% benzalkonium chloride solution. Put plainly: Benzalkonium chloride dry eye model: tear film break-up time (BUT). Type of assay: in vivo, C57BL/6 mice. As to the method: The healthy male C57BL/6 mice were kept in a controlled environment with a temperature of (25±1)° C., a relative humidity of (25±5)%, and light-dark cycles (9 AM-9 PM) with simulated dawn and dusk. Forty mice (80 eyes) were treated with 5 μL of 0.2% benzalkonium chloride solution twice a day (8:00 AM and 6:00 PM) for 14 days to induce dry eye symptoms, while the remaining ten mice (20 eyes) received no treatment and served as a baseline control. Modeling was carried out on the 15th day; and the dry eye rat models were screened based on tear film break-up time (BUT), fluorescein sodium staining of corneal, and Schirmer's test I for tear secretion. Tear film break-up time (BUT) was used to assess the tear film stability: 1 μL of 1% fluorescein sodium solution was instilled into the conjunctival sac of the mouse, and the mouse was held and blinked artificially three times; the upper and lower eyelids of the mouse were then separated; and the tear film was observed under cobalt blue filter on a slit lamp; the tear film break-up time was recorded as the number of seconds that elapse between the last blink and the appearance of the first dry spot in the tear film of the cornea; each eye was measured three times, and the average of the three measurements was recorded in seconds. […] Group A, the drug treatment group, was treated with the eye drops comprising 0.1% TAT-[…] peptide, four times a day; Group B, the solvent control group, was treated with eye drops without TAT-[…] peptide, four times a day; and Group C, the blank control group, received no treatment; on days 1, 4, and 7 after treatment, BUT, Schirmer's test I, and fluorescein sodium staining were performed; on the 7th day, the paraffin sections of the conjunctival fornix was stained by PAS stain; and the number of PAS-positive goblet cells was counted.

Assay [2] has the same test system. Put plainly: Benzalkonium chloride dry eye model: Schirmer's test I (phenol red thread). It counts as in vivo, C57BL/6 mice. As to the method:
The healthy male C57BL/6 mice were kept in a controlled environment with a temperature of (25±1)° C., a relative humidity of (25±5)%, and light-dark cycles (9 AM-9 PM) with simulated dawn and dusk. Forty mice (80 eyes) were treated with 5 μL of 0.2% benzalkonium chloride solution twice a day (8:00 AM and 6:00 PM) for 14 days to induce dry eye symptoms, while the remaining ten mice (20 eyes) received no treatment and served as a baseline control. Modeling was carried out on the 15th day; and the dry eye rat models were screened based on tear film break-up time (BUT), fluorescein sodium staining of corneal, and Schirmer's test I for tear secretion. To assess tear secretion, Schirmer's test I was performed on mice at 3 PM each day using the phenol red thread; general anesthesia was induced by intraperitoneal injection of pentobarbital (50 mg/kg body weight); the lower eyelid was grasped and gently pulled down; front end of the phenol red thread, folded 1 mm, was placed on the conjunctival surface near the outer canthus of the lower eyelid for 15 seconds; the length of the red-stained portion of the phenol red thread was measured and recorded; the eyelid was then closed after the Schirmer's test I to avoid excessive exposure; each eye was tested twice, and the average length of the red-stained portion of the phenol red thread was recorded as the final result. […] Group A, the drug treatment group, was treated with the eye drops comprising 0.1% TAT-[…] peptide, four times a day; Group B, the solvent control group, was treated with eye drops without TAT-[…] peptide, four times a day; and Group C, the blank control group, received no treatment; on days 1, 4, and 7 after treatment, BUT, Schirmer's test I, and fluorescein sodium staining were performed; on the 7th day, the paraffin sections of the conjunctival fornix was stained by PAS stain; and the number of PAS-positive goblet cells was counted.

Assay [3] relates to rabbit model of dry eye (0.1% benzalkonium chloride). Put plainly: Rabbit model of dry eye: conjunctiva appearance and fluorescein staining. Type of assay: in vivo, New Zealand white rabbits. As to the method: 1.2.1 Grouping: thirty New Zealand white rabbits were randomly divided into three groups, each comprising 10 rabbits: a blank control group, a solvent control group, and a drug treatment group.
1.2.2 Preparation of a rabbit model of dry eye: the right eye of each rabbit was used to establish a dry eye rabbit model by administering 0.1% benzalkonium chloride eye drops twice a day for 4 weeks. After 4 weeks, the dry eye rabbit model was evaluated, with the conjunctiva appearing dry, tear production being reduced, and Schirmer test values being less than 10 mm/5 min (compared to the control group, where all Schirmer test values were above 10 mm).
1.2.3 Drug preparation and usage: a liquid formulation of 0.1% TAT-N16 peptide eye drops were prepared by dissolving the peptide raw materials in physiological saline according to a weight ratio of 0.1%. The eye drops comprising 0.1% TAT-N16 peptide were administered 2 drops, 3 times a day for 7 days. The blank control group received no treatment, and the solvent control group received physiological saline eye drops 2 drops, 3 times a day for 7 days. The normal eye group served as a normal control group.
1.3 Specimen collection and animal testing were conducted by the same individual. The examination time, location, illumination brightness, and temperature were consistent throughout the experiment. The rabbit conjunctiva appearance, fluorescein staining, tear film break-up time were analyzed using a slit lamp before and on days 4 and 7 after treatment; additionally, the Schirmer's test and conjunctival impression cytology (CIC) were carried out.

Turning to “TAT-N16 peptide: cell-penetrating artificial peptide, sequence SEQ ID NO: 2, constructed by linking the peptide N16 to a TAT sequence; P55PIK inhibitor (YGRKKRRQRRRMMPYSTELIFYIEMDP)”, the “Tear film break-up time (BUT) values (x ± s)” value was determined as 3.49 ± 0.43 s in assay [1] (0 d (baseline), drug treatment group, 0.1% eye drops); 4.82 ± 0.57 s in assay [1] (4 d, 0.1% eye drops four times a day); 5.99 ± 0.55 s in assay [1] (7 d, 0.1% eye drops four times a day). Also, the “Tear film break-up time compared with blank control group, model control group and solvent control group” value in assay [1] (4th day of treatment) is reported as “significantly longer”; in assay [1] (7 days of continuous treatment, P=0.007), “significantly longer”. The “Tear secretion volume compared with blank control group and solvent control group” value in assay [2] (4th day of treatment) is on record as “significantly higher”; in assay [2] (7 days of continuous treatment, P<0.05), “significantly higher”. Moreover, the “Schirmer's test I values (x ± s)” value is recorded as 5.14 ± 0.29 mm in assay [2] (4 days of treatment, 0.1% eye drops four times a day); 5.88 ± 0.63 mm in assay [2] (7 days of treatment, 0.1% eye drops four times a day); 4.19 ± 0.24 mm in assay [2] (before treatment (baseline), drug treatment group, 0.1% eye drops). Besides, the “Appearance of the rabbit conjunctiva” value is given as “improved” in assay [3] (after 4 days of treatment) and “appeared moist” in assay [3] (after 7 days of treatment). For the same substance, the “Dot-like and patchy fluorescein staining on the conjunctiva” value in assay [3] (after 4 days of treatment) was “decreased”. Also, in assay [3] (after 7 days of treatment), the “Fluorescein staining on the conjunctiva” value is “no staining was observed”.
